Measurements taken from paper PMC7939473, “Unique active-site and subsite features in the arabinogalactan-degrading GH43 exo-β-1,3-galactanase from Phanerochaete chrysosporium” (The Journal of Biological Chemistry, 2021).

Target: T1, Pc1,3Gal43A (Phanerodontia chrysosporium, UniProt Q50KB2, E208A)
T1 construct: signal peptide removed; Gln21-Tyr448 (428 residues) plus two extra N-terminal residues Glu19-Phe20 from restriction site; GH43_sub24 catalytic domain (21-325) + CBM35 (326-448); expressed in Pichia pastoris, N-glycosylated at Asn79, Asn194, Asn389; monomer in solution
T1 sequence (Q50KB2 entry or part of it E208A): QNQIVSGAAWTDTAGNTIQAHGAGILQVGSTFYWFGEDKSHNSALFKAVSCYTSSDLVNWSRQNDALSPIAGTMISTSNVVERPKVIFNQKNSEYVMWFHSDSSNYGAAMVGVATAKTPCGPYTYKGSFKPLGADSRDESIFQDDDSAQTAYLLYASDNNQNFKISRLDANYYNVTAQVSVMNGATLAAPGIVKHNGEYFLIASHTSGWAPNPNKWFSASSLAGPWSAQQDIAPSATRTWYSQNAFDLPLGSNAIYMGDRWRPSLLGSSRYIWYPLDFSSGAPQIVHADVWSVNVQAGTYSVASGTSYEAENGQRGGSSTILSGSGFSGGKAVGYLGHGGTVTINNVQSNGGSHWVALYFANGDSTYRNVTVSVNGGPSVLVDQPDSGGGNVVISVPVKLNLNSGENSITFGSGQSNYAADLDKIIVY
Experiment: X-ray crystallography (co-crystal, […] Å)
Conditions: ligand-binding site of the CBM35 domain (not in catalytic site); 10 mM Gal3; pH 4.5

Question: Which “X-ray crystallography (co-crystal, 2.3 Å)” value does the source give for `OC[C@H]1O[C@@H](O[C@H]2[C@@H](O)[C@@H](CO)O[C@@H](O[C@H]3[C@@H](O)[C@@H](CO)OC(O)[C@@H]3O)[C@@H]2O)[C@H](O)[C@@H](O)[C@H]1O` (stereo partly drawn) [Gal3, β-1,3-galactotriose] here?
Answer: In E208A_Gal3, electron density of Gal3 was observed in the ligand-binding site of PcCBM35
